pIC50: −log10 of the molar value.

As usually defined, the pIC50 is the IC50 on a negative log10 scale, so that one unit is a factor of ten. Low readings indicate a high IC50, high ones a low IC50.

The target in this assay is skeletal myofibrils (myosin ATPase). In words: Skeletal Myofibril ATPase Assay. The format is biochemical. As to conditions: Table 4C. The method in brief:
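Skeletal myofibril ATPase activity was measured via PK-LDH coupling, following NADH loss at 340 nm every 1.5-2 min for 45 min in PIPES/CaCl2/EGTA pCa buffer, pH 7.0. Max−Min slopes were normalised to 1% DMSO vehicle (100%) and fit to a four-parameter logistic (bottom ≥0) for IC50.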
Molecule `CCc1ccc(-c2ccc(=O)n(CC(=O)Nc3ccc4c(c3)OCCO4)n2)cc1` [IIIb-44, N-(2,3-dihydrobenzo[b][1,4]dioxin-6-yl)-2-(3-(4-ethylphenyl)-6-oxopyridazin-1(6H)-yl)acetamide] showed a negative logarithm of the IC50 (pIC50) below 4.00.
In the case of `COc1ccc(-c2ccc(=O)n(CC(=O)NC3CCCC3)n2)cc1OC` [IIIb-45, N-cyclopentyl-2-(3-(3,4-dimethoxyphenyl)-6-oxopyridazin-1(6H)-yl)acetamide] it was below 4.00; in that of `COc1ccc(-c2ccc(=O)n(CC(=O)NCc3ccc(F)cc3)n2)c(F)c1` [IIIb-46, 2-(3-(2-fluoro-4-methoxyphenyl)-6-oxopyridazin-1(6H)-yl)-N-(4-fluorobenzyl)acetamide], below 4.00; in that of `COCCNC(=O)Cn1nc(-c2ccc(OC)cc2)ccc1=O` [IIIb-47, N-(2-methoxyethyl)-2-(3-(4-methoxyphenyl)-6-oxopyridazin-1(6H)-yl)acetamide], below 4.00.
In turn, `COc1ccc(-c2ccc(=O)n(CC(=O)NCCC(C)C)n2)cc1` [IIIb-48, N-isopentyl-2-(3-(4-methoxyphenyl)-6-oxopyridazin-1(6H)-yl)acetamide] had a pIC50 below 4.00.
Turning to `COc1ccc(-c2ccc(=O)n(CC(=O)NCc3ccc(OC)c(OC)c3)n2)cc1` [IIIb-49, N-(3,4-dimethoxybenzyl)-2-(3-(4-methoxyphenyl)-6-oxopyridazin-1(6H)-yl)acetamide], the pIC50 was below 4.00.
In the case of `COc1ccc(-c2ccc(=O)n(CC(=O)NCc3ccc(F)cc3)n2)cc1` [IIIb-50, N-(4-fluorobenzyl)-2-(3-(4-methoxyphenyl)-6-oxopyridazin-1(6H)-yl)acetamide] it was below 4.00.
In the case of `COc1ccc(-c2ccc(=O)n(CC(=O)NCCc3ccc(OC)c(OC)c3)n2)cc1` [IIIb-51, N-(3,4-dimethoxyphenethyl)-2-(3-(4-methoxyphenyl)-6-oxopyridazin-1(6H)-yl)acetamide] it was below 4.00; in that of `COc1ccc(-c2ccc(=O)n(CC(=O)Nc3cccc(Cl)c3)n2)cc1` [IIIb-52, N-(3-chlorophenyl)-2-(3-(4-methoxyphenyl)-6-oxopyridazin-1(6H)-yl)acetamide], below 4.00.
As for `COc1ccc(-c2ccc(=O)n(CC(=O)NCc3ccco3)n2)cc1` [IIIb-53, N-(furan-2-ylmethyl)-2-(3-(4-methoxyphenyl)-6-oxopyridazin-1(6H)-yl)acetamide], the figure is below 4.00; as for `COc1ccc(-c2ccc(=O)n(CC(=O)NCc3ccccc3)n2)c(F)c1` [IIIb-54, N-benzyl-2-(3-(2-fluoro-4-methoxyphenyl)-6-oxopyridazin-1(6H)-yl)acetamide], below 4.00; as for `COc1ccc(-c2ccc(=O)n(CC(=O)NCc3cccc(F)c3)n2)c(F)c1` [IIIb-55, 2-(3-(2-fluoro-4-methoxyphenyl)-6-oxopyridazin-1(6H)-yl)-N-(3-fluorobenzyl)acetamide], below 4.00.
On to `COc1ccc(-c2ccc(=O)n(CC(=O)Nc3ccc(C(C)C)cc3)n2)cc1` [IIIb-56, N-(4-isopropylphenyl)-2-(3-(4-methoxyphenyl)-6-oxopyridazin-1(6H)-yl)acetamide], for which the negative-log IC50 (pIC50) is below 4.00.
`COc1ccc(-c2ccc(=O)n(CC(=O)NCCC(C)C)n2)c(F)c1` [IIIb-57, 2-(3-(2-fluoro-4-methoxyphenyl)-6-oxopyridazin-1(6H)-yl)-N-isopentylacetamide] showed a negative logarithm of the IC50 (pIC50) below 4.00.
The molecule `COc1ccc(-c2ccc(=O)n(CC(=O)NC3CC3)n2)c(F)c1` [IIIb-58, N-cyclopropyl-2-(3-(2-fluoro-4-methoxyphenyl)-6-oxopyridazin-1(6H)-yl)acetamide] had a negative logarithm of the IC50 (pIC50) below 4.00.
In turn, `COc1ccc(-c2ccc(=O)n(CC(=O)Nc3cccc(C)n3)n2)cc1` [IIIb-59, 2-(3-(4-methoxyphenyl)-6-oxopyridazin-1(6H)-yl)-N-(6-methylpyridin-2-yl)acetamide] showed a negative logarithm of the IC50 (pIC50) below 4.00.
As for `COc1ccc(-c2ccc(=O)n(CC(=O)NC3CCCCC3)n2)c(F)c1` [IIIb-60, N-cyclohexyl-2-(3-(2-fluoro-4-methoxyphenyl)-6-oxopyridazin-1(6H)-yl)acetamide], the figure is below 4.00; as for `CCc1cccc(NC(=O)Cn2nc(-c3ccc(C)cc3)ccc2=O)c1` [IIIc-1, N-(3-ethylphenyl)-2-(6-oxo-3-(p-tolyl)pyridazin-1(6H)-yl)acetamide], above 5.00.
As for `CC[C@H](C)NC(=O)Cn1nc(-c2ccc(C)cc2)ccc1=O` [IIIc-2, (S)-N-(sec-butyl)-2-(6-oxo-3-(p-tolyl)pyridazin-1(6H)-yl)acetamide], the figure is above 5.00.
`Cc1ccc(-c2ccc(=O)n(CC(=O)NCCc3ccccc3)n2)cc1` [IIIc-3, 2-(6-oxo-3-(p-tolyl)pyridazin-1(6H)-yl)-N-phenethylacetamide]: the negative-log IC50 (pIC50) was above 5.00.
As to `Cc1ccc(-c2ccc(=O)n(CC(=O)NC3CCCCCC3)n2)cc1` [IIIc-4, N-cycloheptyl-2-(6-oxo-3-(p-tolyl)pyridazin-1(6H)-yl)acetamide], the pIC50 is 4.00 to 5.00.
Take `Cc1ccc(-c2ccc(=O)n(CC(=O)NC3CCCC3)n2)cc1` [IIIc-5, N-cyclopentyl-2-(6-oxo-3-(p-tolyl)pyridazin-1(6H)-yl)acetamide]: the negative logarithm of the IC50 (pIC50) is 4.00 to 5.00.
As for `Cc1ccc(-c2ccc(=O)n(CC(=O)NC3CCCCC3)n2)cc1` [IIIc-6, N-cyclohexyl-2-(6-oxo-3-(p-tolyl)pyridazin-1(6H)-yl)acetamide], the figure is 4.00 to 5.00; as for `COc1ccc(-c2ccc(=O)n(CC(=O)N(C)c3ccccc3)n2)cc1` [IIIc-7, 2-(3-(4-methoxyphenyl)-6-oxopyridazin-1(6H)-yl)-N-methyl-N-phenylacetamide], 4.00 to 5.00.
In the case of `Cn1ccc2c(NC(=O)Cn3nc(-c4ccc(F)cc4)ccc3=O)cccc21` [IIIc-16, 2-(3-(4-fluorophenyl)-6-oxopyridazin-1(6H)-yl)-N-(1-methyl-1H-indol-4-yl)acetamide] it was above 5.00; in that of `O=C(Cn1nc(-c2ccc(Cl)cc2)ccc1=O)Nc1cccc2[nH]ccc12` [IIIc-19, 2-(3-(4-chlorophenyl)-6-oxopyridazin-1(6H)-yl)-N-(1H-indol-4-yl)acetamide], above 5.00.
As for `Cn1ccc2c(NC(=O)Cn3nc(-c4ccc(Cl)cc4)ccc3=O)cccc21` [IIIc-20, 2-(3-(4-chlorophenyl)-6-oxopyridazin-1(6H)-yl)-N-(1-methyl-1H-indol-4-yl)acetamide], the figure is above 5.00.
`O=C(Cn1nc(-c2ccc(Cl)cc2)ccc1=O)Nc1ccc2[nH]ccc2c1` [IIIc-22, 2-(3-(4-chlorophenyl)-6-oxopyridazin-1(6H)-yl)-N-(1H-indol-5-yl)acetamide] showed a negative logarithm of the IC50 (pIC50) above 5.00.
In the case of `COc1ccccc1NC(=O)Cn1nc(-c2ccc(Cl)cc2)ccc1=O` [IIIc-23, 2-(3-(4-chlorophenyl)-6-oxopyridazin-1(6H)-yl)-N-(2-methoxyphenyl)acetamide] it was above 5.00; in that of `O=C(Cn1nc(-c2ccc(Cl)cc2)ccc1=O)Nc1ccccc1F` [IIIc-27, 2-(3-(4-chlorophenyl)-6-oxopyridazin-1(6H)-yl)-N-(2-fluorophenyl)acetamide], 4.00 to 5.00.
As for `O=C(Cn1nc(-c2ccc(Cl)cc2)ccc1=O)Nc1ccccc1Cl` [IIIc-28, N-(2-chlorophenyl)-2-(3-(4-chlorophenyl)-6-oxopyridazin-1(6H)-yl)acetamide], the figure is above 5.00; as for `CC[C@H](C)NC(=O)Cn1nc(-c2ccc(Cl)cc2)ccc1=O` [IIIc-30, (S)-N-(sec-butyl)-2-(3-(4-chlorophenyl)-6-oxopyridazin-1(6H)-yl)acetamide], 4.00 to 5.00; as for `COc1ccc(NC(=O)Cn2nc(-c3ccc(F)cc3)ccc2=O)c(OC)c1` [IIIc-31, N-(2,4-dimethoxyphenyl)-2-(3-(4-fluorophenyl)-6-oxopyridazin-1(6H)-yl)acetamide], 4.00 to 5.00.
In the case of `CN(Cc1ccccc1)C(=O)Cn1nc(-c2ccc(Cl)cc2)ccc1=O` [IIIc-32, N-benzyl-2-(3-(4-chlorophenyl)-6-oxopyridazin-1(6H)-yl)-N-methylacetamide] it was 4.00 to 5.00; in that of `CC(C)OCCCNC(=O)Cn1nc(-c2ccc(Cl)cc2)ccc1=O` [IIIc-33, 2-(3-(4-chlorophenyl)-6-oxopyridazin-1(6H)-yl)-N-(3-isopropoxypropyl)acetamide], 4.00 to 5.00.
Regarding `CC(C)CNC(=O)Cn1nc(-c2ccc(Cl)cc2)ccc1=O` [IIIc-35, 2-(3-(4-chlorophenyl)-6-oxopyridazin-1(6H)-yl)-N-isobutylacetamide], the negative-log IC50 (pIC50) is 4.00 to 5.00.
As for `CC(C)NC(=O)Cn1nc(-c2ccc(Br)cc2)ccc1=O` [IIIc-40, 2-(3-(4-bromophenyl)-6-oxopyridazin-1(6H)-yl)-N-isopropylacetamide], the figure is 4.00 to 5.00.
In the case of `O=C(Cn1nc(-c2ccc(F)cc2)ccc1=O)NCCc1c[nH]c2ccccc12` [IIIc-44, N-(2-(1H-indol-3-yl)ethyl)-2-(3-(4-fluorophenyl)-6-oxopyridazin-1(6H)-yl)acetamide] it was 4.00 to 5.00; in that of `O=C(Cn1nc(-c2ccccc2)ccc1=O)NCc1ccccc1Cl` [IIIc-47, N-(2-chlorobenzyl)-2-(6-oxo-3-phenylpyridazin-1(6H)-yl)acetamide], 4.00 to 5.00.
In the case of `O=C(Cn1nc(-c2ccccc2)ccc1=O)NCCC1=CCCCC1` [IIIc-48, N-(2-(cyclohex-1-en-1-yl)ethyl)-2-(6-oxo-3-phenylpyridazin-1(6H)-yl)acetamide] it was above 5.00; in that of `O=C(Cn1nc(-c2ccccc2)ccc1=O)Nc1ccc2[nH]ccc2c1` [IIIc-49, N-(1H-indol-5-yl)-2-(6-oxo-3-phenylpyridazin-1(6H)-yl)acetamide], above 5.00; in that of `O=C(Cn1nc(-c2ccccc2)ccc1=O)Nc1cccc2[nH]ccc12` [IIIc-50, N-(1H-indol-4-yl)-2-(6-oxo-3-phenylpyridazin-1(6H)-yl)acetamide], 4.00 to 5.00.
Consider `O=C(Cn1nc(-c2ccccc2)ccc1=O)NC1(c2ccccc2)CCC1` [IIIc-51, 2-(6-oxo-3-phenylpyridazin-1(6H)-yl)-N-(1-phenylcyclobutyl)acetamide], for which the pIC50 is above 5.00.

These data come from US20230293518A1 (Edgewise Therapeutics, Inc., priority 2020, published 2023).
